From patent US20240391882A1 (Mirati Therapeutics, Inc., priority 2023, published 2024) come the findings set out here.

Molecules are shown by their SMILES. Some results are limits rather than exact numbers.

For test [1], the system named is pAKT in T47D (PI3Kα H1047R mutant) cells. Briefly: Inhibition of pAKT (alphaLISA Surefire Ultra AKT 1/2/3 pS473) in T47D cells. It is filed as cell-based. Conditions: Homo sapiens; T47D (PI3Kα H1047R mutant) cells, 24 hr compound incubation, alphaLISA pS473; read-out: T47D (H1047R) pAKT 24 hr (IC50). As to the method: The ability of a compound of Formula (I) to inhibit the formation of pAKT was measured using alphaLISA Surefire Ultra AKT 1/2/3 (pS473) Assay Kit (#ALSU-PAKT-B50K) was obtained from Perkin Elmer (Waltham, MA).
To prepare assay plates for pAKT alphaLISA assays, cells were trypsinized, resuspended in fresh media, and viable cells were counted utilizing trypan blue exclusion. Prior to seeding, cells were washed with PBS and resuspended in HBSS (Gibco, #14025092). T47D (12,000/w), SKBR3 (12,000/w), or MKN1 (24,000/w) cells were seeded at 12 μl per well in a solid white flat bottom 384 cell culture plate (Perkin Elmer #6007680).
Immediately after seeding, cells were dosed using an Echo Liquid Handler (Beckman Coulter) with compounds at a 10.4 μm starting concentration and serially diluted (1:4) for a total of 10 concentrations. 14 vehicle (DMSO) and 14 positive control (Alpelisib @3.125 μm) wells were included on each assay plate. Cells were incubated with the compounds (solubilized in DMSO) for approximately 24 hours at 37° C. After 24 hours of treatment, cells were lysed with 3 μl of the 5× lysis buffer (provided and incubated at room temperature for 15 min on a microtiter plate shaker). Once cells were sufficiently lysed, 7.5 μl of the acceptor bead mix (made using the manufacturers recommended dilutions) was added to each well and left on the microtiter plate shaker for 1 min prior to incubating plates at room temperature for 1 hour, in the absence of light. After 1 hour of incubation with the acceptor bead mix, 7.5 μl of the donor bead mix (made using the manufacturers recommended dilutions) was added to each well and left on the microtiter plate shaker for 1 min prior to incubating plates at room temperature overnight in the absence of light. Plates were then imaged the following day using a CLARIOstar microplate reader (BMG Labtech, Germany).
Percent of control values were calculated by subtracting the average signal from the positive control (alpelisib) treated wells from all treated wells (including DMSO control wells) and then divided by the average signal from the vehicle DMSO treated control wells. Percent of vehicle control values were plotted as log(inhibitor) vs. response—Variable slope (four parameters) for curve fitting and IC50 values were determined using XLfit.
For orientation: Bead proximity is the source of the signal in Alpha formats.

The subject of test [2] is T47D (PI3Kα H1047R mutant) cells. Briefly: Cell viability (CellTiter-Glo 2.0) in T47D cells. It is filed as cell-based. Conditions: Homo sapiens, T47D, 72 h, approximately 72 hours. As to the method: This Example illustrates that representative compounds of the invention decrease the viability of cells.
The ability of a compound of Formula (I) to decrease the viability of cells was measured using CellTiter-Glo 2.0 (CTG) Luminescent Cell Viability Assay (#G9241) obtained from Promega (Madison, WI).
To prepare assay plates for viability assays, cells were trypsinized, resuspended in fresh media, and viable cells were counted utilizing trypan blue exclusion. T47D, SKBR3, or MKN1 cells were seeded at 1000 cells in 30 μl per well in a solid white flat bottom 384 cell culture plate (Perkin Elmer #6007680) and incubated at 37° C. overnight.
Assay day 1, cells were dosed using an Echo Liquid Handler (Beckman Coulter) with compounds at a 10 μm starting concentration and serially diluted (1:4) for a total of 10 concentrations. Cells were incubated for approximately 72 hours with the compounds (solubilized in DMSO) at 37° C. After 72 hours of treatment, cell plates were equilibrated to room temperature before adding 15 μl of CTG to each well, plates were then covered in aluminum foil to protect from light, incubated at room temperature for 30 minutes on a microtiter plate shaker, and luminescence readings were collected using a CLARIOstar microplate reader (BMG Labtech, Germany). Percent of vehicle control values were plotted as log(inhibitor) vs. response—Variable slope (four parameters) for curve fitting and IC50 values were determined using XLfit.
A general note: Cellular ATP, detected with luciferase, serves as a proxy for viable cell number.

As to `Cc1cc([C@@H](C)Nc2nccnc2C(=O)O)c2nc(N3CCC(F)(F)CC3)c(C#N)nc2c1` [Example 113, (R)-3-((1-(2-cyano-3-(4,4-difluoropiperidin-1-yl)-7-methylquinoxalin-5-yl)ethyl)amino)pyrazine-2-carboxylic acid], the IC50 (usually the concentration needed to halve the response being measured) is more than 10400 nM in test [1] and 1170 nM in test [2].

For the compound `Cc1cc([C@@H](C)Nc2ccc(Cl)nc2C(=O)O)c2nc(N(C)CCC(=O)N(C)C)c(C#N)nc2c1` [Example 114, (R)-6-chloro-3-((1-(2-cyano-3-((3-(dimethylamino)-3-oxopropyl)(methyl)amino)-7-methylquinoxalin-5-yl)ethyl)amino)picolinic acid], the figures for the IC50 in test [1] and in test [2] were 11 nM and 190 nM, respectively.

Regarding `Cc1cc([C@@H](C)Nc2ccc(Cl)nc2C(=O)O)c2nc(N3CCN(c4ncc(C)s4)CC3)c(C#N)nc2c1` [Example 115, (R)-6-chloro-3-((1-(2-cyano-7-methyl-3-(4-(5-methylthiazol-2-yl)piperazin-1-yl)quinoxalin-5-yl)ethyl)amino)picolinic acid], the IC50 came out at 1 nM in test [1] and 31.3 nM in test [2].

Take `Cc1cc([C@@H](C)Nc2ccc(Cl)nc2C(=O)O)c2nc(N3CC(F)(F)C4(CC4)C3)c(C#N)nc2c1` [Example 116, (R)-6-chloro-3-((1-(2-cyano-3-(7,7-difluoro-5-azaspiro[2.4]heptan-5-yl)-7-methylquinoxalin-5-yl)ethyl)amino)picolinic acid]: the IC50 amounted to 15 nM in test [1] and 202 nM in test [2].

Turning to `Cc1cc([C@@H](C)Nc2ccc(Cl)nc2C(=O)O)c2nc(-n3ccnc3)c(C#N)nc2c1` [Example 117, (R)-6-chloro-3-((1-(2-cyano-3-(1H-imidazol-1-yl)-7-methylquinoxalin-5-yl)ethyl)amino)picolinic acid], the results for the IC50 in test [1] and in test [2] were 66 nM and 498 nM, respectively.

On to `Cc1cc([C@@H](C)Nc2ccc(Cl)nc2C(=O)O)c2nc(N3C4CCC3COC4)c(C#N)nc2c1` [Example 120, 3-(((1R)-1-(3-(3-oxa-8-azabicyclo[3.2.1]octan-8-yl)-2-cyano-7-methylquinoxalin-5-yl)ethyl)amino)-6-chloropicolinic acid], for which the IC50 was determined as 2.4 nM in test [1] and 56.4 nM in test [2].

In the case of `Cc1cc([C@@H](C)Nc2ccc(Cl)nc2C(=O)O)c2nc(N3C[C@@H](F)[C@@H](F)C3)c(C#N)nc2c1` [Example 122, 6-chloro-3-(((R)-1-(2-cyano-3-((3S,4R)-3,4-difluoropyrrolidin-1-yl)-7-methylquinoxalin-5-yl)ethyl)amino)picolinic acid], the IC50 in test [1] is 1.3 nM; in test [2], 33.8 nM.

Consider `Cc1cc([C@@H](C)Nc2ccc(Cl)nc2C(=O)O)c2nc(N3CC(C)(C)C(F)(F)C3)c(C#N)nc2c1` [Example 123, (R)-6-chloro-3-((1-(2-cyano-3-(3,3-difluoro-4,4-dimethylpyrrolidin-1-yl)-7-methylquinoxalin-5-yl)ethyl)amino)picolinic acid], for which the IC50 in test [1] amounted to 66.8 nM; in test [2], 273 nM.

`Cc1cc([C@@H](C)Nc2ccc(Cl)nc2C(=O)O)c2nc(NCCC(F)(F)F)c(C#N)nc2c1` [Example 124, (R)-6-chloro-3-((1-(2-cyano-7-methyl-3-((3,3,3-trifluoropropyl)amino)quinoxalin-5-yl)ethyl)amino)picolinic acid]: the figures for the IC50 in test [1] and in test [2] were 1.9 nM and 126 nM, respectively.

Consider `Cc1cc([C@@H](C)Nc2ccc(Cl)nc2C(=O)O)c2nc(NCCC(=O)N(C)C)c(C#N)nc2c1` [Example 125, (R)-6-chloro-3-((1-(2-cyano-3-((3-(dimethylamino)-3-oxopropyl)amino)-7-methylquinoxalin-5-yl)ethyl)amino)picolinic acid], for which the figures for the IC50 in test [1] and in test [2] were 2.7 nM and 163 nM, respectively.

On to `Cc1cc([C@@H](C)Nc2ccc(Cl)nc2C(=O)O)c2nc(N3CCC(c4ccnn4C)CC3)c(C#N)nc2c1` [Example 126, (R)-6-chloro-3-((1-(2-cyano-7-methyl-3-(4-(1-methyl-1H-pyrazol-5-yl)piperidin-1-yl)quinoxalin-5-yl)ethyl)amino)picolinic acid], for which the IC50 in test [1] was 0.8 nM; in test [2], 24.8 nM.

For `Cc1cc([C@@H](C)Nc2ccccc2C(=O)O)c2nc(N3CC(F)(F)C3)c(C#N)nc2c1` [Example 127, (R)-2-((1-(2-cyano-3-(3,3-difluoroazetidin-1-yl)-7-methylquinoxalin-5-yl)ethyl)amino)benzoic acid], the IC50 in test [1] was 8.4 nM; in test [2], 296 nM.

For `Cc1cc([C@@H](C)Nc2ccc(Cl)nc2C(=O)O)c2nc(N3CC(F)(F)C3)c(C#N)nc2c1` [Example 128, (R)-6-chloro-3-((1-(2-cyano-3-(3,3-difluoroazetidin-1-yl)-7-methylquinoxalin-5-yl)ethyl)amino)picolinic acid], the IC50 in test [1] was determined as 1.4 nM; in test [2], 121 nM.

For the compound `Cc1cc([C@@H](C)Nc2ccccc2C(=O)O)c2nc(N3CCC4(CC3)C(F)(F)C4(F)F)c(C#N)nc2c1` [Example 129, (R)-2-((1-(2-cyano-7-methyl-3-(1,1,2,2-tetrafluoro-6-azaspiro[2.5]octan-6-yl)quinoxalin-5-yl)ethyl)amino)benzoic acid], the results for the IC50 in test [1] and in test [2] were 18.8 nM and 330 nM, respectively.

Take `Cc1cc([C@@H](C)Nc2ccc(Cl)nc2C(=O)O)c2nc(N3CC[C@H](CO)C3)c(C#N)nc2c1` [Example 158, 6-chloro-3-(((R)-1-(2-cyano-3-((S)-3-(hydroxymethyl)pyrrolidin-1-yl)-7-methylquinoxalin-5-yl)ethyl)amino)picolinic acid]: the figures for the IC50 in test [1] and in test [2] were 3.6 nM and 88.1 nM, respectively.

As to `Cc1cc([C@@H](C)Nc2ccc(Cl)nc2C(=O)O)c2nc(N3CC[C@@H](CO)C3)c(C#N)nc2c1` [Example 159, 6-chloro-3-(((R)-1-(2-cyano-3-((R)-3-(hydroxymethyl)pyrrolidin-1-yl)-7-methylquinoxalin-5-yl)ethyl)amino)picolinic acid], the half-maximal inhibitory concentration (IC50) in test [1] amounted to 2.6 nM; in test [2] it was 70.3 nM.

For `CC(=O)N1CCN(c2nc3c([C@@H](C)Nc4ccc(Cl)nc4C(=O)O)cc(C)cc3nc2C#N)CC1` [Example 160, (R)-3-((1-(3-(4-acetylpiperazin-1-yl)-2-cyano-7-methylquinoxalin-5-yl)ethyl)amino)-6-chloropicolinic acid], the figures for the half-inhibitory concentration (IC50) in test [1] and in test [2] were 4.6 nM and 85.8 nM, respectively.

In the case of `Cc1cc([C@@H](C)Nc2ccc(Cl)nc2C(=O)O)c2nc(N3CCC(=O)CC3)c(C#N)nc2c1` [Example 161, (R)-6-chloro-3-((1-(2-cyano-7-methyl-3-(4-oxopiperidin-1-yl)quinoxalin-5-yl)ethyl)amino)picolinic acid], the IC50 came out at 4.6 nM in test [1] and 47.6 nM in test [2].

Regarding `Cc1cc([C@@H](C)Nc2ccc(Cl)nc2C(=O)O)c2nc(N3CCc4ccncc4C3)c(C#N)nc2c1` [Example 162, (R)-6-chloro-3-((1-(2-cyano-3-(3,4-dihydro-2,7-naphthyridin-2(1H)-yl)-7-methylquinoxalin-5-yl)ethyl)amino)picolinic acid], the IC50 in test [1] was found to be 1.6 nM; in test [2] it was 35 nM.

For `Cc1cc([C@@H](C)Nc2ccc(Cl)nc2C(=O)O)c2nc(N3C[C@@H]4[C@H](CO)[C@@H]4C3)c(C#N)nc2c1` [Example 163, 6-chloro-3-(((R)-1-(2-cyano-3-((1R,5S,6S)-6-(hydroxymethyl)-3-azabicyclo[3.1.0]hexan-3-yl)-7-methylquinoxalin-5-yl)ethyl)amino)picolinic acid], the IC50 was 6.8 nM in test [1] and 191 nM in test [2].
